We go through six compounds from publication PMC7176276, “Elucidating the possible mechanism of action of some pathogen box compounds against Leishmania donovani” (PLoS Neglected Tropical Diseases, 2020).

In series [1] the test system is Leishmania donovani promastigotes. Briefly: In vitro antileishmanial activity assay, promastigotes (MTT). The class given is cell-based. To be noted: for Therapeutic Index (TC50/IC50) promastigotes: TC50 RAW 264.7 / IC50 promastigotes.
Series [2] has as its system RAW 264.7 macrophage cell line. Briefly: Cytotoxicity test against RAW macrophage cell line using MTT assay. It counts as cell-based, murine. The settings on record: RAW 264.7, 48 hours. The protocol: A murine macrophage cell line (RAW 264.7) was cultured in DMEM medium supplemented with penicillin G sodium (100 μg/mL), streptomycin sulfate (100 μg/mL) and 10% FBS. Macrophages at a density of 1 x 10^6 cells/mL were incubated at different concentrations (ranging from 0.39–100 μg/mL) of the compounds for 48 hours in a CO2 incubator (5% CO2, 37° C). Macrophages without any treatment were taken as negative control and amphotericin B was used as positive control. At the termination of the assay, MTT was added and incubated for an additional 3 hours. Acidified isopropanol was added to the set-up to solubilize the formazan crystals formed by the viable cells. The intensity of formazan formation was read on an Elisa plate reader (Varioskan Lux Elisa microplate reader, Thermo Fischer Scientific, USA) at 570 nm. The 50% cytotoxic concentrations (CC50) of the compounds were determined by analysis of dose-response curves. Selectivity index or therapeutic index was calculated as a ratio of CC50 RAW 264.7/IC50 L. donovani promastigotes or amastigotes.

Series [3] concerns Leishmania donovani promastigotes. Briefly: Growth kinetics assay against promastigotes. It counts as cell-based. The settings on record: for incubation time after which decline in the parasite population was observed: promastigotes, 1μg/mL. The procedure:
Promastigotes of L. donovani (2 x 10^4 cells) were incubated at 25° C in the presence of the test compounds (at 1μg/mL for each compound) in M199 containing 10% FBS (complete medium). Promastigotes treated with amphotericin B (0–50 μg/ml) served as positive control while untreated promastigotes in the medium alone served as negative control. Aliquots from treated and control parasites were diluted in 0.02 M PBS (pH 7.2) and the viable cells counted daily for 5 days using a Neubauer haemocytometer and a phase-contrast microscope under a 40x objective.

Series [4] deals with Leishmania donovani amastigotes. Briefly: In vitro antileishmanial activity assay, macrophage-amastigotes model (MTT). The class given is cell-based. The settings on record: TC50 RAW 264.7 / IC50 amastigotes. The protocol:
Leishmania donovani (MHOM/SD/62/1S strain) was a kind gift from Dr. Yamthe Lauve (Bei Resources NIAID, NIH). The promastigotes were cultured in M199 medium supplemented with 10% heat-inactivated fetal bovine serum (FBS), penicillin G sodium (100 μg/mL) and streptomycin sulfate (100 μg/mL) at 25° C and subcultured every 72 hours in the same medium at a mean density of 1 x 10^5 cells/mL [9]. The murine macrophage cell line RAW 264.7 (RIKEN BioResource Centre Cell Bank, Japan) were kindly provided by Professor Regina Appiah-Opong of the Clinical Pathology Department, Noguchi Memorial Institute for Medical Research, Ghana. RAW 264.7 were grown at 37° C in DMEM medium (pH 7.4) supplemented with 10% heat-inactivated FBS for 48–72 hours in 5% CO2 and subcultured in fresh DMEM medium at a mean density of 1 x 10^5 cells/mL.
Amphotericin B was used as a reference antileishmanial drug (positive control). RAW 264.7 macrophage cells were infected with promastigotes at a density of 1:10 ratio for 12 hours, after which the non-phagocytosed promastigotes were discarded (by aspirating them alongside the media) and the amastigote cells within the macrophages were treated with the compounds (in fresh complete media) to test their growth inhibitory activity using the method described previously. Parasite viability was assessed using the 3-(4,5-Dimethylthiazol-2-yl)-2,5-diphenyltetrazolium bromide (MTT) method in which the rate of formazan crystal formation was used as an index of cell viability as described by Mosmann. Fluorescence was measured with a Varioskan Lux Elisa microplate reader (Thermo Fischer Scientific, USA) at a wavelength of 570 nm. The fluorescence counts were plotted against the drug concentrations and the 50% inhibitory concentration (IC50) was determined by analysis of the dose-response curves using excel.

The test system of series [5] is human red blood cells. Briefly: Haemolysis assay against the human red blood cells. The class given is cell-based. To be noted: 2% haematocrit, 3 hours. The procedure: The haemolytic effect of the compounds were tested against the human red blood cells at a density of 2% haematocrit. The method described by Kazi et al was used with slight modification. In this study, human red blood cells were used, the respective test compounds were incubated for 3 hours and 1% triton X100 served as the positive control. At the end of the assay the supernatant was read on a microtiter plate reader (Varioskan Lux Elisa microplate reader, Thermo Fischer Scientific, USA) at 415 nm. The 50% haemolytic concentration (HC50) of the compounds were determined by analysis of dose-response curves.

For series [6], the system named is Leishmania donovani promastigotes. Briefly: Growth reversibility assay (cytocidal/cytostatic) against promastigotes. It counts as cell-based. To be noted: for cytocidal or cytostatic effect: growth reversibility profile after drug withdrawal; for growth reversal / reversibility of growth inhibition: promastigotes washed after 5 days of treatment; for growth reversal: regrown 4 days in fresh medium; for reversibility of growth inhibition: regrown 4 days. The protocol:
However, to confirm the cytocidal or cytostatic effect of the test compounds, the treated and untreated parasites after 5 days of incubation were washed twice with fresh M199 and then resuspended in complete M199 media and allowed to grow further at 25° C; the viable promastigotes were enumerated microscopically after 4 days.

Series [7] has the same test system. Briefly: Morphological and mitochondrion integrity analysis by fluorescence microscopy (DAPI, MitoTracker). It counts as cell-based. The settings on record: 1μg/mL; for parasite cells with degeneration/disintegration of DNA (nucleus, kinetoplast) and mitochondrion: 72 hours. The procedure:
Leishmania donovani promastigotes (2 x 10^4 cells) were treated with the test compounds at 1μg/mL (point concentration). They were then incubated for 24 hours and 72 hours in order to study their morphological changes and to see the changes in their mitochondrial integrity using DAPI and MitoTracker red dye respectively. The assay was performed using the methods described by Amisigo et al with slight modifications. Here the Mitotracker red dye was added to the pelleted promastigote cells at a concentration of 100 nM, resuspended in 1 mL of FBS-free M199 media with 1% BSA (Bovine Serum Albumin) and incubated for 30 minutes.

The test system is the same in series [8]. Briefly: Cell cycle progression analysis by flow cytometry. The class given is cell-based. To be noted: 2x IC50, 24 hours; for change in the number of cells at the G2/M phase: versus untreated. The procedure:
Guava Cell Cycle Reagent (catalog No. 4500–0220) was used to stain the cells and the number of cells in G0/G1, S and G2/M phases were determined. Briefly, treated and untreated cells were pelleted and fixed in 70% ice-cold ethanol for an hour at -20°C, the suspended cells were then pelleted by centrifugation at 1500 rpm for 10 minutes. The supernatants were discarded, and the pelleted cells were washed twice with 1X PBS to ensure total removal of the ethanol. To a 200 μL of the cell pellets, a 200 μL of the Gauva Cell Cycle Reagent was added and incubated at room temperature (25°C) for 30 minutes in the dark. Cell distribution at the distinct cell cycle phases were measured using flow cytometer (BD LSR Fortessa X-20 analyzer BD Biosciences San Jose, CA 95131 USA). Data generated were analyzed using the FlowJo V10 software.

Series [9] has the same test system. Briefly: Apoptotic and necrotic potentials, Annexin V-FITC/PI flow cytometry. It counts as cell-based. To be noted: 2x IC50, 24 hours; far less than in the untreated cells. The procedure: Briefly, treated promastigote cells were washed twice with cold 1x PBS and then resuspended in 1x binding buffer at a cell density of 1 x 10^6 cells/mL. To a 100 μL of the suspended cells, 5 μL of Annexin V-FITC and 5 μL of Propidium Iodide (PI) were added. The mixture was gently vortexed and allowed to incubate for 15 minutes at room temperature (25°C) in the dark. To the set-up, 400 μL of 1x binding buffer was added and the assay was read by flow cytometry (BD LSR Fortessa X-20 analyzer BD Biosciences, San Jose, CA 95131 USA) and the results analyzed using FlowJo version 10 software.

Series [10] deals with Leishmania donovani promastigote. Also on record: method as in PMID 25690568. The settings on record: earlier report ref 18; cited from earlier work.
In series [11] the test system is Leishmania donovani amastigote. Also noted: method as in PMID 25690568. To be noted: earlier report ref 18; cited from earlier work.
For series [12], the system named is L. major. Also noted: method as in PMID 25690568. To be noted: earlier report ref 18; cited from earlier work.
The subject of series [13] is L. infantum. Also on record: method as in PMID 25690568. To be noted: earlier report ref 18; cited from earlier work.

A value given as a limit tells only on which side of the number the result lay.

Compound `C[C@@H]1[C@H](O)[C@@H](C)/C=C/C=C/C=C/C=C/C=C/C=C/C=C/[C@H](O[C@@H]2O[C@H](C)[C@@H](O)[C@H](N)[C@@H]2O)C[C@@H]2O[C@](O)(C[C@@H](O)C[C@@H](O)[C@H](O)CC[C@@H](O)C[C@@H](O)CC(=O)O[C@H]1C)C[C@H](O)[C@H]2C(=O)O` [Amphotericin B, amphotericin B, reference compound] yielded a concentration for half-maximal inhibition (IC50) in series [1] (Leishmania donovani, 96 h, promastigotes, 4 days at 25° C, MTT, mean ±SD of three experiments) of 5.3 ± 0.03 µM. Moreover, the “Therapeutic Index (TC50/IC50) promastigotes” value in [1] is 3.0. For the same compound, the “TC50(μM)±SD RAW” value in [2] was determined as 15.75 ± 0.03 µM. In addition, the “effect on growth of promastigotes (growth kinetics)” value in [3] (viable cells counted daily for 5 days, compared with untreated control) is “no viable cells observed after 24 hours”.

On to `CNC(=O)C1Cc2ccccc2N1C(=O)Cc1ccc(F)cc1` (centres unmarked) [MMV188296], for which the “Therapeutic Index (TC50/IC50) promastigotes” value in [1] was determined as 914. For the same compound, in series [4], the “Therapeutic Index (TC50/IC50) amastigotes” value is reported as 237. The “HC50 (50% haemolytic concentration)” value in [5] is over 100 µg/mL. For the same compound, the “incubation time after which decline in the parasite population was observed” value (“incubation time after which decline” for short) in series [3] turned out to be 48 h. Further, in series [6], the “cytocidal or cytostatic effect” value was “cytostatic” and the growth reversal stood at 56.5%. The “parasite population with loss in mitochondrion integrity” value in series [7] (24 hours) is 40%. Moreover, the “parasite cells with degeneration/disintegration of DNA (nucleus, kinetoplast) and mitochondrion” value in series [7] is reported as “more than 90%”.

With `CC(C)(C)OC(=O)N1CCN(c2[nH]nnc2-c2ccc(Oc3ccccc3)cc2)CC1` [MMV676057], the “Therapeutic Index (TC50/IC50) promastigotes” value in [1] was 432. Besides, the “Therapeutic Index (TC50/IC50) amastigotes” value in series [4] is listed as 16. In series [5], the “HC50 (50% haemolytic concentration)” value was over 100 µg/mL. Further, the “incubation time after which decline” value in [3] stood at 48 h. The “cytocidal or cytostatic effect” value in series [6] was “cytocidal”. Further, the “reversibility of growth inhibition” value in [6] is reported as “not reversible”. The “parasite cells showing no obvious DNA and mitochondrion abnormality” value in series [7] (24 hours) is given as “About 70%”. The “parasite cells with degeneration/disintegration of DNA (nucleus, kinetoplast) and mitochondrion” value in [7] is “about 85%”. Moreover, the “cells at the S phase” value in [8] is recorded as 23%. In series [8], the “change in the number of cells at the G2/M phase” value was “no significant change”. For the same compound, in series [8] (untreated 30%), the “cells at the G0-G1 phase” value was found to be 23%. In [9], the “apoptosis and necrosis of promastigotes” value is “slight apoptosis and necrosis”. The IC50 is 1.3 µM in series [10], over 10 µM in series [11], 13 µM in series [12] and 10.2 µM in series [13].

Turning to `Cc1nn2c(=O)c3c([nH]c2c1-c1ccc(Cl)cc1)CCCC3` [MMV688776], the “Therapeutic Index (TC50/IC50) promastigotes” value in series [1] amounted to 19. Moreover, in series [4], the “Therapeutic Index (TC50/IC50) amastigotes” value stood at 1. The “TC50(μM)±SD RAW” value in [2] stood at 50 ± 0.02 µM. In series [5], the “HC50 (50% haemolytic concentration)” value is over 100 µg/mL. Further, in [3], the “incubation time after which decline” value came to 24 h. In series [6], the “cytocidal or cytostatic effect” value is “cytostatic” and the growth reversal was 57.9%. The “parasite cells showing no obvious DNA and mitochondrion abnormality” value in series [7] (24 hours) is on record as “About 70%”. The “parasite cells with degeneration/disintegration of DNA (nucleus, kinetoplast) and mitochondrion” value in series [7] was “About 70%”.

Consider `CCc1nn(C)c(C(=O)NCc2ccc(Oc3ccc(C)cc3)cc2)c1Cl` [MMV688934], for which the “Therapeutic Index (TC50/IC50) promastigotes” value in [1] amounted to 416. Moreover, in series [4], the “Therapeutic Index (TC50/IC50) amastigotes” value is 453. Further, the “HC50 (50% haemolytic concentration)” value in series [5] was over 100 µg/mL. Moreover, the “incubation time after which decline” value in series [3] came out at 24 h. In series [6], the “cytocidal or cytostatic effect” value is “cytostatic” and the growth reversal amounted to 32.3%. Besides, the “promastigotes showing enlargement of the nucleus and kinetoplast with the mitochondria losing its normal shape” value in series [7] (24 hours) was 70%. For the same compound, the “parasite cells with degeneration/disintegration of DNA (nucleus, kinetoplast) and mitochondrion” value in series [7] is “more than 90%”.

In the case of `CC(C)(C)C(O)C(Oc1ccc(-c2ccccc2)cc1)n1cncn1` (centres unmarked) [MMV688942], the “Therapeutic Index (TC50/IC50) promastigotes” value in series [1] was found to be 43. In series [4], the “Therapeutic Index (TC50/IC50) amastigotes” value is recorded as 16. In [5], the “HC50 (50% haemolytic concentration)” value was over 100 µg/mL. Besides, the “incubation time after which decline” value in series [3] turned out to be 48 h. In [6], the “cytocidal or cytostatic effect” value was “cytocidal” and the “reversibility of growth inhibition” value is reported as “not reversible”. The “parasites showing loss of kinetoplast” value in series [7] (24 hours) is recorded as “about 30%”. Further, in series [7], the “parasite cells with degeneration/disintegration of DNA (nucleus, kinetoplast) and mitochondrion” value is listed as 85%. Besides, in [8], the “cells at the S phase” value turned out to be 28% and the “change in the number of cells at the G2/M phase” value was “no significant change”. For the same compound, the “apoptosis and necrosis of promastigotes” value in series [9] was “slight apoptosis and necrosis”.
